Measurements published in article PMC12164071, “Lysine targeting covalent inhibitors of malarial kinase PfCLK3” (RSC Medicinal Chemistry, 2025).
Where “and” joins values, the source holds several entries; their conditions need not be identical. Identical values can stand only once. Entries after “also recorded” stand apart in the source; their conditions may differ. Like-named read-outs stand apart in the source and are kept apart here.

Legend:
[1] = tested on: 3D7 Plasmodium falciparum parasites; assay: Ex vivo P. falciparum (3D7) inhibition assay; type: cell-based; details: 3D7, Pf3D7 parasites, 72 hours, errors SD
Method: Compounds 4, 5, 8 and 9 were then assessed against 3D7 Plasmodium falciparum parasites (Fig. 6). […]
P. falciparum (3D7) culture and synchronisation.
P. falciparum cultures were maintained in RPMI-1640 media (Invitrogen) supplemented with 0.2% sodium bicarbonate, 0.5% Albumax II, 2.0 mM L-glutamine (Sigma) and 10 mg/L gentamycin. For continuous culture, the parasites were maintained at 4% haematocrit in human erythrocytes from 0+ blood donors and between 0.5 - 3% parasitaemia in an incubator at 37 °C, 5% carbon dioxide (CO 2), 5% oxygen (O 2) and 90% nitrogen (N 2). To obtain highly synchronous ring stage parasites for assays, cultures were double synchronised using Percoll and Sorbitol synchronisation. First, highly segmented schizonts were enriched by centrifugation on a 70% Percoll (GE Healthcare) cushion gradient. The Schizont pellet was collected and washed twice before fresh erythrocytes were added to a final haematocrit of 4%, and incubated for about 1-2 hours shaking continuously to allow merozoites egress and re-invasion of new erythrocytes. Residual schizonts were then removed by a second Percoll purification followed by treating the ring pellet with sorbitol to generate highly synchronous 1-2 hours old ring-stage parasites.
Ex vivo P. Falciparum (3D7) inhibition assay.
To determine the IC 50 of the molecules in parasites (P. falciparum 3D7) ex vivo, the molecules were diluted 1 in 3 from a starting concentration of 100 μM for 12 dilution points in triplicate. 50 μL of freshly diluted drugs, at twice the required final concentrations were aliquoted into black 96-well plates. To the compound plates, 50 μL of parasites prepared at 8% haematocrit at a parasitaemia (0.3 - 0.5%) were added and mixed by pipetting up and down several times giving a final culture volume of 100 μL at the required compound concentration (top concentration of 100 μM) and 4% haematocrit. To the ‘no compound’ control, growth media was added and uninfected erythrocytes were included on the plate as blank. The outer wells were filled with media to reduce evaporation from the experimental wells and the plates incubated for 72 hours (±2 hours) to allow the parasites sufficient time to re-invade before they are collected and frozen. For cellular washout studies, compound media was exchanged for compound-free media after 6 hours, and the parasites incubated for a […]

human (h)CLK2 = human (h)CLK2 (Homo sapiens, UniProt P49760); assay: Selectivity kinase assay against hCLK2; type: biochemical; details: for IC50: errors SD, N ≥ 3
Chain of human (h)CLK2 (P49760 whole entry): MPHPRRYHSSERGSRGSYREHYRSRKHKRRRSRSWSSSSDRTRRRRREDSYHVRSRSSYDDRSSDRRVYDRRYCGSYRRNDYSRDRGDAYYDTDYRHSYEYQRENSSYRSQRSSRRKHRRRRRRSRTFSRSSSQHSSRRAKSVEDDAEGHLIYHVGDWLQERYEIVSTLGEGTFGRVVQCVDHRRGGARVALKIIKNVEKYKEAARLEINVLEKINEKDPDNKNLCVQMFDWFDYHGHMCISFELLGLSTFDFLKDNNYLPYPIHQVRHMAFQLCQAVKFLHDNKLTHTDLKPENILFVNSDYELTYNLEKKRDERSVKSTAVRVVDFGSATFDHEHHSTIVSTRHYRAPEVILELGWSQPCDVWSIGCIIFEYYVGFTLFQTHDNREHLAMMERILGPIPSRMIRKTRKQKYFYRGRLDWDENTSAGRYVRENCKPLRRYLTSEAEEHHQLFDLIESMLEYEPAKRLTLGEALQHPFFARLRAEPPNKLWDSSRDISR
Excerpt: Given this work aims to target a conserved residue, selectivity must be derived from the reversible ligand rather than the covalent interaction.

[2] = Human cell viability assay (resazurin); details: HepG2, 48 hours, errors SD, N ≥ 3
Method: Cytotoxicity was assessed in HepG2 cells to complement the selectivity evaluations (Fig. 7). […]
Human cell viability assay.
Mycoplasma tested HepG2 cells were cultured in Dulbecco’s Modified Eagle Medium
(DMEM) with 10% fetal bovine serum, 1% non-essential AA, 1% sodium pyruvate, 1% Pen-
strep and 100ug/mL Normocin. Cultures were incubated at 37 ℃, 5% CO2. Cells were
detached using 0.05% trypsin-EDTA. 500nL of drug compound dilutions, in triplicate, were
added to 384-well, black, clear bottom assay plates using a Mosquito liquid handling
machine. Assay plates, containing compound dilutions, were seeded at 5,000 cells/well and
incubated for 48 hours. 40uM final concentration resazurin, diluted in DPBS, was added to
the assay plates which were then incubated for 4 hours and analysed using a ClariostarTM
plate reader to measure fluorescence Intensity (545-20nm/600-40nm). 3 control compounds
were included on every assay plate, Tamoxifen, Puromycin and TCMDC-135051. Maximum
signal control was obtained from wells with DMSO only and minimum signal control with
Tamoxifen 100uM. These were used to normalise data and give percentage inhibition of
metabolic activity. Experiments were performed N=3 and normalised data was grouped and a
nonlinear regression curve with four parameters was plotted using GraphPad Prism,
generating activity data. […]

[3] = tested on: PfCLK3 kinase domain (amino acid residues 334–699); assay: Intact protein LC-MS for covalent adduct formation; type: binding, Plasmodium falciparum; details: for covalent adduct formation with PfCLK3 kinase domain: pH 7.4, 1:5 protein to compound ratio
Method: All compounds were then evaluated for covalent binding with PfCLK3 kinase domain (amino acid residues 334–699) using intact protein LC-MS (Fig. 3). Compounds were incubated at pH 7.4 in a 1 : 5 protein to compound ratio and analysed for covalent adduct formation using ESI TOF. […] Compounds 8 and 9 yielded a fully modified species at 43 957 Da, which can be attributed to the mass of the apo protein + the mass of the pyridinium product adduct. A minor mass (20–25%) of 44 378 Da was also detected, consistent with a doubly modified PfCLK3 kinase domain. This implies that cross reactivity with non-catalytic lysine residues is possible using the ethynyl benzaldehyde functionality, although a minor product. […]
dialyzing the protein into a final buffer containing 20 mM HEPES pH 7.4, 150 mM NaCl, 1 […]
PfCLK3 kinase domain (residues 334–699 with a C-terminal TEV cleavage sequence and His6-tag) was cloned into pFastBac vector and expressed and purified from Sf21 insect cells.
Cells were infected using P2 BIICs at an MOI of 0.2 and left to express for 72 h. Harvested cells were lysed and centrifuged before purifying using IMAC and SEC in a final buffer containing 20 mM HEPES pH 7.4, 150 mM NaCl, 1 mM TCEP, and 1 mM MgCl2.
Protein Mass Spectrometry
For intact protein mass spectrometry, compounds were incubated with a 5-fold excess of compound in buffer containing 20 mM HEPES pH 7.4, 150 mM NaCl, 1 mM TCEP, and 1 mM MgCl 2. 5 μL of kinase domain (1 mg/mL) was added to 25 μL of buffer before 0.12 μL of compound in a 10 mM DMSO stock was added to start the incubation. Samples were incubated at room temperature for 4 hours before 10 μL alliquots were analysed by LC-MS.
Intact protein LC-MS experiments were performed on a Synapt G2 Q-ToF instrument equipped with electrospray ionisation (Waters Corp., Manchester, UK). LC separation was achieved using an Acquity UPLC equipped with a reverse phase C4 Aeris Widepore 50 × 2.1 mm HPLC column (Phenomenex, CA, USA) and a gradient of 5–95% acetonitrile (0.1% formic acid) over 10 minutes was employed. Data analysis was performed using MassLynx v4.1 and deconvolution was performed using MaxEnt. […]

[4] = N ≥ 3, read-out: pEC50 (3D7) (converted)
[5] = pH 7.4, 1:5 protein to compound, 4 hours room temperature, compound 4 with C-terminal His-tag construct

Structure (SMILES) | EC50 ([1]; N ≥ 3, read-out: EC50 (3D7)) | EC50 [1, 4] | IC50 (human (h)CLK2; read-out: pIC50 (hCLK2) (converted)) | fold more potent against hCLK2 than parent S1 (human (h)CLK2; relative to S1) | CC50 at 48 h ([2]; CC50 (HepG2)) | CC50 at 48 h ([2]; pCC50 (HepG2)) | doubly modified PfCLK3 kinase domain, minor mass abundance ([3]; 44 378 Da species) | covalent adduct formation with PfCLK3 kinase domain [3] | Relative Ratio, assignment holo (doubly modified) ([3]; pH 7.4, 1:5 protein to compound, 4 hours room temperature) | Relative Ratio, assignment holo (singly modified) [3, 5] | IC50 (human (h)CLK2; read-out: IC50 (hCLK2)) | partial covalent bond formation, modification ([3]; imine adduct) | Relative Ratio, assignment apo [3, 5]
C#Cc1ccc(-c2c[nH]c3ncc(-c4cc(CN(CC)CC)ccc4OC)cc23)cc1C=O [Compound 9] | 4.35 ± 0.5 µM | 4.37 µM | 0.0166 µM | 31 fold | 7.94 ± 1.29 µM | 7.94 µM | 20–25% and ~20% | showed covalent adduct formation; also recorded: formed a covalent adduct with PfCLK3 | 20 | 80 |  |  | 
CCN(CC)Cc1ccc(OC)c(-c2cc3c(-c4ccc(O)c(C=O)c4)ccnc3[nH]2)c1 [Compound 4] | 6.35 ± 2.31 µM | 6.31 µM |  |  | 5.25 ± 2.47 µM | 5.25 µM |  | showed covalent adduct formation; also recorded: formed a covalent adduct with PfCLK3 |  | 60 | 0.104 ± 0.037 µM | 32–60% | 40
